Measured values reported in US20240400584A1, “COMPOUNDS AND METHODS FOR MODULATING SPLICING” (REMIX THERAPEUTICS INC., priority 2021, published 2024).

Tests used:
SMN2 = experiment: Gene panel canonical junction qPCR assay, SMN2 CJ mRNA (Table 7); format: cell-based; conditions: Homo sapiens, read-out: SMN2 CJ mRNA decrease IC50
Summary of the method: (§1)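 A673 or K562 cells were treated with compound; lysates went through cDNA synthesis and RT-qPCR, with a probe or primer spanning the canonical exon–exon junction. ΔCt vs housekeeper (GAPDH, GUSB or PPIA), normalized to DMSO (2^(−ΔΔCt)), converted to percentage response; IC50 from 4-parameter logistic fit of CJ decrease.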

MYB [1] = experiment: RT-qPCR splicing assay, MYB AJ/CJ mRNA; format: cell-based; conditions: Homo sapiens, A673 or K562 cells, 24 hours; for IC50: decrease in canonical junction mRNA; for AC50: increase in alternative junction mRNA
Summary of the method: (§2)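 Splicing switch scored as change in CJ and AJ isoform levels, by RT-qPCR on lysates of A673 or K562 cells dosed 24 h (top concentration 10 uM, DMSO at most 0.25%). ΔΔCt relative to DMSO wells was converted to RQ and then to percentage response.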

HTT [2] = experiment: Gene panel canonical junction qPCR assay, HTT CJ mRNA (Table 7); format: cell-based, human; conditions: Homo sapiens, read-out: HTT CJ mRNA decrease IC50
Summary of the method: as §1

HTT [3] = experiment: RT-qPCR splicing assay, HTT AJ/CJ mRNA; format: cell-based, human; conditions: Homo sapiens, 24 h, A673 or K562 cells; for IC50: decrease in canonical junction mRNA; for AC50: increase in alternative junction mRNA
Summary of the method: as §2

Target C = experiment: Gene panel canonical junction qPCR assay, Target C CJ mRNA (Table 7); format: cell-based, human; conditions: Homo sapiens, read-out: Target C CJ mRNA decrease IC50
Summary of the method: as §1

MYB [4] = experiment: Gene panel canonical junction qPCR assay, MYB CJ mRNA (Table 7); format: cell-based; conditions: Homo sapiens, read-out: MYB CJ mRNA decrease IC50
Summary of the method: as §1

SMILES | IC50 (SMN2) | IC50 (MYB [1]) | IC50 (HTT [2]) | IC50 (HTT [3]) | IC50 (Target C) | IC50 (MYB [4]) | AC50 (MYB [1]) | AC50 (HTT [3])
CC1(C)CC(Oc2ccc3c(n2)OCc2cc(-n4cccn4)ccc2-3)CC(C)(C)N1 [Compound 171] | 100 to 1000 nM | 1000 to 10000 nM | 1000 to 10000 nM | 1000 to 10000 nM | 1000 to 10000 nM | 1000 to 10000 nM | 1000 to 10000 nM | 1000 to 10000 nM
COc1cc(-c2ccc3c(c2)COc2nc(N(C)[C@H]4C[C@@H]5CC(F)(F)[C@H](C4)N5)ccc2-3)cnn1 [Compound 247, (1R,3S,5S)-6,6-difluoro-N-[8-(6-methoxypyridazin-4-yl)-6H-isochromeno[3,4-b]pyridin-3-yl]-N-methyl-8-azabicyclo[3.2.1]octan-3-amine] | < 100 nM | 100 to 1000 nM | < 100 nM | < 100 nM | 100 to 1000 nM | 100 to 1000 nM | > 10000 nM | < 100 nM
CN(c1ccc2c(n1)OCc1cc(-c3cn[nH]c3)c(F)cc1-2)C1CC(C)(C)NC(C)(C)C1 [Compound 233, 9-fluoro-N-methyl-8-(1H-pyrazol-4-yl)-N-(2,2,6,6-tetramethylpiperidin-4-yl)-6H-isochromeno[3,4-b]pyridin-3-amine] | < 100 nM | 100 to 1000 nM | < 100 nM | < 100 nM | 100 to 1000 nM | 100 to 1000 nM | 1000 to 10000 nM | 100 to 1000 nM
COc1cc(-c2cc(F)c3c(c2)COc2nc(N(C)[C@@H]4C[C@H]5CC[C@@H](C4)N5)ccc2-3)cnn1 [Compound 254, (1R,3S,5S)—N-[10-fluoro-8-(6-methoxypyridazin-4-yl)-6H-isochromeno[3,4-b]pyridin-3-yl]-N-methyl-8-azabicyclo[3.2.1]octan-3-amine; bis(trifluoroacetaldehyde)] | < 100 nM | 100 to 1000 nM | < 100 nM | < 100 nM | 100 to 1000 nM | 100 to 1000 nM | 100 to 1000 nM | < 100 nM
c1cnn(-c2ccc3c(c2)OCCc2cc(N[C@@H]4C[C@H]5CC[C@@H](C4)N5)ccc2-3)c1 [Compound 139] | > 10000 nM | > 10000 nM | > 10000 nM | > 10000 nM | > 10000 nM | > 10000 nM | > 10000 nM | > 10000 nM
CC1(C)CC(Oc2ccc3c(n2)OCc2cc(-c4cn[nH]c4)ccc2-3)CC(C)(C)N1 [Compound 219, 8-(1H-pyrazol-4-yl)-3-((2,2,6,6-tetramethylpiperidin-4-yl)oxy)-6H-isochromeno [3,4-b] pyridine] | 100 to 1000 nM | 100 to 1000 nM | 100 to 1000 nM | 100 to 1000 nM | 100 to 1000 nM | 100 to 1000 nM | > 10000 nM | 100 to 1000 nM
FC1(F)CC2CC(Oc3ccc4c(n3)OCc3cc(-n5nccn5)ccc3-4)CC1N2 (stereo not drawn) [Compound 235, 6,6-difluoro-3-{[8-(1,2,3-triazol-2-yl)-6H-isochromeno[3,4-b]pyridin-3-yl]oxy}-8-azabicyclo[3.2.1]octane] | > 10000 nM | > 10000 nM | > 10000 nM | > 10000 nM | 1000 to 10000 nM | > 10000 nM | > 10000 nM | > 10000 nM
c1cnn(-c2ccc3c(c2)COc2nc(O[C@@H]4C[C@H]5CCC[C@@H](C4)N5)ccc2-3)c1 [Compound 198] | 100 to 1000 nM | 100 to 1000 nM | 100 to 1000 nM | 100 to 1000 nM | 1000 to 10000 nM | 100 to 1000 nM | 100 to 1000 nM | 100 to 1000 nM

Now from value to compound, other results behind:

IC50 (SMN2) | IC50 (MYB [1]) | IC50 (HTT [2]) | IC50 (HTT [3]) | IC50 (Target C) | IC50 (MYB [4]) | SMILES | AC50 (MYB [1]) | AC50 (HTT [3])
> 10000 nM | > 10000 nM | > 10000 nM | > 10000 nM | > 10000 nM | > 10000 nM | COc1cc(-c2ccc3c(c2)COc2nc(N4CCC(NC(C)(C)C)CC4)ccc2-3)cnn1 [Compound 302] | > 10000 nM | > 10000 nM
< 100 nM | 100 to 1000 nM | < 100 nM | < 100 nM | 100 to 1000 nM | 100 to 1000 nM | COc1cc(-c2ccc3c(c2)COc2nc(N4CCN[C@@H](C(C)(C)C)C4)ccc2-3)cnn1 [Compound 318, 5-{3-[(3S)-3-tert-butylpiperazin-1-yl]-6H-isochromeno[3,4-b]pyridin-8-yl}-3-methoxypyridazine] | 100 to 1000 nM | 100 to 1000 nM
100 to 1000 nM | 1000 to 10000 nM | 100 to 1000 nM | 100 to 1000 nM | 1000 to 10000 nM | 1000 to 10000 nM | COc1cc(-c2ccc3c(c2)COc2nc(N4CCC(N(C)CC5CC5)C4)ccc2-3)cnn1 (stereo not drawn) [Compound 308] | 1000 to 10000 nM | 1000 to 10000 nM
100 to 1000 nM | > 10000 nM | 1000 to 10000 nM | 1000 to 10000 nM | 1000 to 10000 nM | > 10000 nM | CNC1CCN(c2ccc3c(n2)OCc2cc(-c4cnnc(OC)c4)ccc2-3)CC1 [Compound 300, 1-[8-(6-methoxypyridazin-4-yl)-6H-isochromeno[3,4-b]pyridin-3-yl]-N-methylpiperidin-4-amine] | > 10000 nM | 1000 to 10000 nM
100 to 1000 nM | > 10000 nM | 1000 to 10000 nM | 1000 to 10000 nM | > 10000 nM | > 10000 nM | c1cnn(-c2ccc3c(c2)COc2nc(N4CCC(NC5CC5)C4)ccc2-3)n1 (stereo not drawn) [Compound 249, N-cyclopropyl-1-[8-(1,2,3-triazol-2-yl)-6H-isochromeno[3,4-b]pyridin-3-yl]pyrrolidin-3-amine] | > 10000 nM | 1000 to 10000 nM
< 100 nM | 100 to 1000 nM | < 100 nM | < 100 nM | 100 to 1000 nM | 100 to 1000 nM | COc1cc(-c2ccc3c(c2)COc2nc(N4CC[C@@H](NC(C)(C)C)C4)ncc2-3)cnn1 [Compound 278] | 100 to 1000 nM | 100 to 1000 nM
< 100 nM | 100 to 1000 nM | < 100 nM | < 100 nM | 100 to 1000 nM | 100 to 1000 nM | CCC(C)(C)NC1CCN(c2ccc3c(n2)OCc2cc(-c4cnnc(OC)c4)ccc2-3)C1 (stereo not drawn) [Compound 281, 1-[8-(6-methoxypyridazin-4-yl)-6H-isochromeno[3,4-b]pyridin-3-yl]-N-(2-methylbutan-2-yl)pyrrolidin-3-amine] | 100 to 1000 nM | < 100 nM
1000 to 10000 nM | > 10000 nM | > 10000 nM | > 10000 nM | > 10000 nM | > 10000 nM | CC(C)(C)NC1CCN(c2ccc3c(n2)OCc2cc(-c4cnnc(C5CC5)c4)ccc2-3)C1 (stereo not drawn) [Compound 266, N-tert-butyl-1-[8-(6-cyclopropylpyridazin-4-yl)-6H-isochromeno[3,4-b]pyridin-3-yl]pyrrolidin-3-amine] | > 10000 nM | > 10000 nM
< 100 nM | 100 to 1000 nM | < 100 nM | < 100 nM | 100 to 1000 nM | 100 to 1000 nM | COc1cc(-c2ccc3c(c2)COc2nc(N4CC[C@@H](N(C)C(C)(C)C)C4)ccc2-3)cnn1 [Compound 271, (3R)—N-tert-butyl-1-[8-(6-methoxypyridazin-4-yl)-6H-isochromeno [3,4-b]377yrrolid-3-yl]-N-methylpyrrolidin-3-amine] | 100 to 1000 nM | < 100 nM
100 to 1000 nM | 1000 to 10000 nM | 100 to 1000 nM | 100 to 1000 nM | 100 to 1000 nM | 1000 to 10000 nM | COc1cc(-c2ccc3c(c2)COc2nc(N4CCC(NC5(C)CC5)C4)ccc2-3)cnn1 (stereo not drawn) [Compound 256, 1-[8-(6-methoxypyridazin-4-yl)-6H-isochromeno[3,4-b]pyridin-3-yl]-N-(1-methylcyclopropyl)pyrrolidin-3-amine] | 1000 to 10000 nM | 100 to 1000 nM
> 10000 nM | > 10000 nM | > 10000 nM | > 10000 nM | > 10000 nM | > 10000 nM | CN1CCCC2(CCN2c2ccc3c(n2)OCc2cc(-c4cn[nH]c4)ccc2-3)C1 (stereo not drawn) [Compound 222, 6-methyl-1-[8-(1H-pyrazol-4-yl)-6H-isochromeno[3,4-b]pyridin-3-yl]-1,6-diazaspiro[3.5]nonane] | > 10000 nM | > 10000 nM
100 to 1000 nM | 1000 to 10000 nM | 1000 to 10000 nM | 1000 to 10000 nM | 1000 to 10000 nM | 1000 to 10000 nM | CC(C)(C)NC1CCN(c2ccc3c(n2)OCc2cc(-n4nccn4)ccc2-3)C1 (stereo not drawn) [Compound 250, N-tert-butyl-1-[8-(1,2,3-triazol-2-yl)-6H-isochromeno[3,4-b]pyridin-3-yl]pyrrolidin-3-amine 2,2,2-trifluoroacetate] | 1000 to 10000 nM | 100 to 1000 nM
< 100 nM | 100 to 1000 nM | < 100 nM | < 100 nM | < 100 nM | 100 to 1000 nM | COc1cc(-c2ccc3c(c2)COc2nc(N4CCC(NC(C)(C)C)C4)ccc2-3)cnn1 (stereo not drawn) [Compound 251, N-tert-butyl-1-[8-(6-methoxypyridazin-4-yl)-6H-isochromeno[3,4-b]pyridin-3-yl]pyrrolidin-3-amine] | 100 to 1000 nM | < 100 nM
